Experimental findings from publication PMC9856672, “SGC-CAMKK2-1: A Chemical Probe for CAMKK2” (Cells, 2023) are described below.

For one assay, the target named is T1, PIK3CB (Homo sapiens, UniProt P42338).
T1 construct: purchased Eurofins DiscoverX KINOMEscan
Briefly: DiscoverX KINOMEscan binding assay at 1 μM, PIK3CB. The conditions noted are these: Compound Concentration 1000 nM, read-out: Percent Control. From the text: (§1) Supplement cells-12-00287-s001.zip/File S2. KinomeScan data for the CAMKK2 probe and negative control.xlsx, sheet "SGC-CAMKK2-1" | column: Percent Control

For another assay, the target named is T2, MEK2 (Homo sapiens, UniProt P36507).
T2 construct: purchased Eurofins DiscoverX KINOMEscan
In words: KINOMEscan 1 μM, MEK2. The note with it: 1000 nM; Entrez MAP2K2; read-out: Percent Control. The assay is classed as binding.
Source text: as §1

For a further assay, the target named is T3, BMX (Homo sapiens, UniProt P51813).
T3 construct: purchased Eurofins DiscoverX KINOMEscan
Briefly: KINOMEscan 1 μM, BMX. The format is binding. The conditions noted are these: 1000 nM; Entrez BMX; read-out: Percent Control.
Source text: as §1

In a further assay the target is T4, LOK (Homo sapiens, UniProt O94804).
T4 construct: purchased Eurofins DiscoverX KINOMEscan
In words: KINOMEscan 1 μM, LOK. The assay is classed as binding. The note with it: 1000 nM; Entrez STK10; read-out: Percent Control.
Source text: as §1

Another assay has as its target T5, PRKCI (Homo sapiens, UniProt P41743).
T5 construct: purchased Eurofins DiscoverX KINOMEscan
Briefly: DiscoverX KINOMEscan binding assay at 1 μM, PRKCI. The note with it: Compound Concentration 1000 nM, read-out: Percent Control.
Source text: as §1

The next assay concerns the target T6, YANK3 (Homo sapiens, UniProt Q86UX6).
T6 construct: purchased Eurofins DiscoverX KINOMEscan
In words: DiscoverX KINOMEscan binding assay at 1 μM, YANK3. The note with it: YANK3 (STK32C); Compound Concentration 1000 nM; read-out: Percent Control.
Source text: as §1

The next assay deals with T7, SRPK3 (Homo sapiens, UniProt Q9UPE1).
T7 construct: purchased Eurofins DiscoverX KINOMEscan
T7 sequence (Q9UPE1 whole entry): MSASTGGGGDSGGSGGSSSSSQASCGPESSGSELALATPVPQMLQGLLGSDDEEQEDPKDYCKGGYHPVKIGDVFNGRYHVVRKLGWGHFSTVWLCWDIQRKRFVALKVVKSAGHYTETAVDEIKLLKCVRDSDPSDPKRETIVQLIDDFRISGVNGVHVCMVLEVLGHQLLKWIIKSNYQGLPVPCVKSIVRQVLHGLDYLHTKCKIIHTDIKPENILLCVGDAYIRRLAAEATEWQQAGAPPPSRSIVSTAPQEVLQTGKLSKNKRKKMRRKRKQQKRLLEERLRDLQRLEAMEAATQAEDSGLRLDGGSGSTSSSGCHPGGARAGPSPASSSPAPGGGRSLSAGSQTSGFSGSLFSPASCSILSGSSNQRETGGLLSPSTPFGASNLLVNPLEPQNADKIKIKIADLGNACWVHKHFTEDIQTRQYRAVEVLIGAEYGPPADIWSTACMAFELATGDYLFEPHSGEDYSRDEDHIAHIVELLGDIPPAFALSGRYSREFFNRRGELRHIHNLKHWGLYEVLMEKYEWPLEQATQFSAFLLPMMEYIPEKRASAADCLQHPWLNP
Briefly: DiscoverX KINOMEscan binding assay at 1 μM, SRPK3. The note with it: Compound Concentration 1000 nM, read-out: Percent Control.
Source text: as §1

Assay [1] has as its target T8, ABL1(F317I)-nonphosphorylated (Homo sapiens, UniProt P00519, F317I).
T8 construct: purchased Eurofins DiscoverX KINOMEscan
Briefly: KINOMEscan 1 μM, ABL1(F317I)-nonphosphorylated. The assay is classed as binding. The conditions noted are these: 1000 nM; Entrez ABL1; read-out: Percent Control.
Source text: as §1

In the next assay the target is T9, WNK2 (Homo sapiens, UniProt Q9Y3S1).
T9 construct: purchased Eurofins DiscoverX KINOMEscan
In words: KINOMEscan 1 μM, WNK2. The assay is classed as binding. The note with it: 1000 nM; Entrez WNK2; read-out: Percent Control.
Source text: as §1

The target in assay [2] is T10, RIOK2 (Homo sapiens, UniProt Q9BVS4).
T10 construct: purchased Eurofins DiscoverX KINOMEscan
T10 sequence (Q9BVS4 whole entry): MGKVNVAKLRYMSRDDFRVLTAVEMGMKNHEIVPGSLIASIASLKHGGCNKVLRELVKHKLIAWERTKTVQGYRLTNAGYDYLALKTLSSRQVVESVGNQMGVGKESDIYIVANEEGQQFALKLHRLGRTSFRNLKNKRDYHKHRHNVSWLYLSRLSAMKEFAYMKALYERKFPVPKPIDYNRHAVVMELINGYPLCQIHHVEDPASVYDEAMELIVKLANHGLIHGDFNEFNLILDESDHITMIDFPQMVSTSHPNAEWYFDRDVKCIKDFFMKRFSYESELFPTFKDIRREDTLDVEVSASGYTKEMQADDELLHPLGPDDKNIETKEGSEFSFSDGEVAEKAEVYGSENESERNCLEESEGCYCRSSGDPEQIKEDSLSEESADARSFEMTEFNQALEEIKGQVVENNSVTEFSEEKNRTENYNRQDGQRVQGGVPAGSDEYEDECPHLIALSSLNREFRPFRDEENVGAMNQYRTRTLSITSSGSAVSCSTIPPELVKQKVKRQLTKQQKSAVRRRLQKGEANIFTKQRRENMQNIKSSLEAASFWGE
In words: DiscoverX KINOMEscan binding assay at 1 μM, RIOK2. The conditions noted are these: Compound Concentration 1000 nM, read-out: Percent Control.
Source text: as §1

A further assay addresses T11, AAK1 (Homo sapiens, UniProt Q2M2I8).
T11 construct: purchased Eurofins DiscoverX KINOMEscan
In words: KINOMEscan 1 μM, AAK1. The assay is classed as binding. The conditions noted are these: 1000 nM; Entrez AAK1; read-out: Percent Control.
Source text: as §1

Another assay has as its target T12, PAK1 (Homo sapiens, UniProt Q13153).
T12 construct: purchased Eurofins DiscoverX KINOMEscan
In words: KINOMEscan 1 μM, PAK1. The assay is classed as binding. The note with it: 1000 nM; Entrez PAK1; read-out: Percent Control.
Source text: as §1

The target of a further assay is T13, RIPK5 (Homo sapiens, UniProt Q6XUX3).
T13 construct: purchased Eurofins DiscoverX KINOMEscan
Briefly: DiscoverX KINOMEscan binding assay at 1 μM, RIPK5. The note with it: RIPK5 (DSTYK); Compound Concentration 1000 nM; read-out: Percent Control.
Source text: as §1

A further assay has as its target T14, FGFR3 (Homo sapiens, UniProt P22607).
T14 construct: purchased Eurofins DiscoverX KINOMEscan
In words: KINOMEscan 1 μM, FGFR3. The assay is classed as binding. The conditions noted are these: 1000 nM; Entrez FGFR3; read-out: Percent Control.
Source text: as §1

The target of another assay is T15, SIK2 (Homo sapiens, UniProt Q9H0K1).
T15 construct: purchased Eurofins DiscoverX KINOMEscan
In words: KINOMEscan 1 μM, SIK2. The format is binding. The note with it: 1000 nM; Entrez SIK2; read-out: Percent Control.
Source text: as §1

Another assay concerns the target T16, GRK2 (Homo sapiens, UniProt P25098).
T16 construct: purchased Eurofins DiscoverX KINOMEscan
In words: KINOMEscan 1 μM, GRK2. The format is binding. The note with it: 1000 nM; Entrez ADRBK1; read-out: Percent Control.
Source text: as §1

In the next assay the target is T17, BLK (Homo sapiens, UniProt P51451).
T17 construct: purchased Eurofins DiscoverX KINOMEscan
In words: KINOMEscan at 1 μM, BLK. The assay is classed as binding. The note with it: 1000 nM, read-out: Percent Control. From the text:
(§2) Supplement cells-12-00287-s001.zip/File S2. KinomeScan data for the CAMKK2 probe and negative control.xlsx, sheet "SGC-CAMKK2-1N" | column: Percent Control

The target in another assay is T18, PLK3 (Homo sapiens, UniProt Q9H4B4).
T18 construct: purchased Eurofins DiscoverX KINOMEscan
In words: KINOMEscan at 1 μM, PLK3. The assay is classed as binding. The note with it: 1000 nM, read-out: Percent Control.
Source text: as §2

Another assay addresses T19, MST4 (Homo sapiens, UniProt Q9P289).
T19 construct: purchased Eurofins DiscoverX KINOMEscan
Briefly: KINOMEscan at 1 μM, MST4. The note with it: 1000 nM, read-out: Percent Control. The assay is classed as binding.
Source text: as §2

In a further assay the target is T20, DAPK2 (Homo sapiens, UniProt Q9UIK4).
T20 construct: purchased Eurofins DiscoverX KINOMEscan
In words: KINOMEscan at 1 μM, DAPK2. The assay is classed as binding. The conditions noted are these: 1000 nM, read-out: Percent Control.
Source text: as §2

For another assay, the target named is T21, MLK3 (Homo sapiens, UniProt Q16584).
T21 construct: purchased Eurofins DiscoverX KINOMEscan
Briefly: KINOMEscan binding assay at 1 μM, MLK3. The conditions noted are these: Compound Concentration 1000 nM; read-out: Percent Control.
Source text: as §2

A further assay concerns the target T22, MET(M1250T) (Homo sapiens, UniProt P08581, M1250T).
T22 construct: purchased Eurofins DiscoverX KINOMEscan
Briefly: KINOMEscan binding assay at 1 μM, MET(M1250T). The conditions noted are these: Compound Concentration 1000 nM; read-out: Percent Control.
Source text: as §2

The next assay concerns the target T23, TRKC (Homo sapiens, UniProt Q16288).
T23 construct: purchased Eurofins DiscoverX KINOMEscan
Briefly: KINOMEscan at 1 μM, TRKC. The assay is classed as binding. The note with it: 1000 nM, read-out: Percent Control.
Source text: as §2

The next assay deals with T24, CLK1 (Homo sapiens, UniProt P49759).
T24 construct: purchased Eurofins DiscoverX KINOMEscan
Briefly: KINOMEscan at 1 μM, CLK1. The format is binding. The conditions noted are these: 1000 nM, read-out: Percent Control.
Source text: as §2

The next assay concerns the target T25, DYRK2 (Homo sapiens, UniProt Q92630).
T25 construct: purchased Eurofins DiscoverX KINOMEscan
Briefly: KINOMEscan at 1 μM, DYRK2. The assay is classed as binding. The conditions noted are these: 1000 nM, read-out: Percent Control.
Source text: as §2

Another assay addresses T26, CSNK1D (Homo sapiens, UniProt P48730).
T26 construct: purchased Eurofins DiscoverX KINOMEscan
Briefly: KINOMEscan at 1 μM, CSNK1D. The assay is classed as binding. The note with it: 1000 nM, read-out: Percent Control.
Source text: as §2

Another assay addresses T27, NIM1 (Homo sapiens, UniProt Q8IY84).
T27 construct: purchased Eurofins DiscoverX KINOMEscan
Briefly: KINOMEscan at 1 μM, NIM1. The format is binding. The note with it: 1000 nM, read-out: Percent Control.
Source text: as §2

In the next assay the target is T28, TESK1 (Homo sapiens, UniProt Q15569).
T28 construct: purchased Eurofins DiscoverX KINOMEscan
T28 sequence (Q15569 whole entry): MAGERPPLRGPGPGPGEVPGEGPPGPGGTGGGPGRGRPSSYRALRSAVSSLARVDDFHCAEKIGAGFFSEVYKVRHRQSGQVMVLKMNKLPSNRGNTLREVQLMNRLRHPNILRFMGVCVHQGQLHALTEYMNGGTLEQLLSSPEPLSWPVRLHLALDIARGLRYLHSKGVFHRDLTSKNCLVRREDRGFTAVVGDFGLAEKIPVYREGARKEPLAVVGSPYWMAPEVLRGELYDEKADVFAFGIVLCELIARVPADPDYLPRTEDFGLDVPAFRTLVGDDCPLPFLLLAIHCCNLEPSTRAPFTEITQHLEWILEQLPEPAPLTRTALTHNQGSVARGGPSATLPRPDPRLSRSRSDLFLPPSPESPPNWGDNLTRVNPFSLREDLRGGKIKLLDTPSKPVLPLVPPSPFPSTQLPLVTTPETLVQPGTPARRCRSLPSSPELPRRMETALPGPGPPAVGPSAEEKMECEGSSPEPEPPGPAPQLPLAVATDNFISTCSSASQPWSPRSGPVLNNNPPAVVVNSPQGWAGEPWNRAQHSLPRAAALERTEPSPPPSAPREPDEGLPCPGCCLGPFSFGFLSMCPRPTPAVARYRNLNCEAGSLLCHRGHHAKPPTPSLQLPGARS
Briefly: KINOMEscan at 1 μM, TESK1. The note with it: 1000 nM, read-out: Percent Control. The format is binding.
Source text: as §2

The target in assay [3] is T10, RIOK2. In words: KINOMEscan at 1 μM, RIOK2. The format is binding. The note with it: 1000 nM, read-out: Percent Control.
Source text: as §2

A further assay deals with T29, YSK1 (Homo sapiens, UniProt O00506).
T29 construct: purchased Eurofins DiscoverX KINOMEscan
In words: KINOMEscan at 1 μM, YSK1. The format is binding. The conditions noted are these: 1000 nM, read-out: Percent Control.
Source text: as §2

For another assay, the target named is T30, BIKE (Homo sapiens, UniProt Q9NSY1).
T30 construct: purchased Eurofins DiscoverX KINOMEscan
Briefly: KINOMEscan at 1 μM, BIKE. The assay is classed as binding. The note with it: 1000 nM, read-out: Percent Control.
Source text: as §2

Another assay concerns the target T31, PCTK1 (Homo sapiens, UniProt Q00536).
T31 construct: purchased Eurofins DiscoverX KINOMEscan
Briefly: KINOMEscan at 1 μM, PCTK1. The format is binding. The conditions noted are these: 1000 nM, read-out: Percent Control.
Source text: as §2

A further assay concerns the target T32, PLK1 (Homo sapiens, UniProt P53350).
T32 construct: purchased Eurofins DiscoverX KINOMEscan
In words: KINOMEscan at 1 μM, PLK1. The assay is classed as binding. The conditions noted are these: 1000 nM, read-out: Percent Control.
Source text: as §2

The next assay deals with T33, MELK (Homo sapiens, UniProt Q14680).
T33 construct: purchased Eurofins DiscoverX KINOMEscan
T33 sequence (Q14680 whole entry): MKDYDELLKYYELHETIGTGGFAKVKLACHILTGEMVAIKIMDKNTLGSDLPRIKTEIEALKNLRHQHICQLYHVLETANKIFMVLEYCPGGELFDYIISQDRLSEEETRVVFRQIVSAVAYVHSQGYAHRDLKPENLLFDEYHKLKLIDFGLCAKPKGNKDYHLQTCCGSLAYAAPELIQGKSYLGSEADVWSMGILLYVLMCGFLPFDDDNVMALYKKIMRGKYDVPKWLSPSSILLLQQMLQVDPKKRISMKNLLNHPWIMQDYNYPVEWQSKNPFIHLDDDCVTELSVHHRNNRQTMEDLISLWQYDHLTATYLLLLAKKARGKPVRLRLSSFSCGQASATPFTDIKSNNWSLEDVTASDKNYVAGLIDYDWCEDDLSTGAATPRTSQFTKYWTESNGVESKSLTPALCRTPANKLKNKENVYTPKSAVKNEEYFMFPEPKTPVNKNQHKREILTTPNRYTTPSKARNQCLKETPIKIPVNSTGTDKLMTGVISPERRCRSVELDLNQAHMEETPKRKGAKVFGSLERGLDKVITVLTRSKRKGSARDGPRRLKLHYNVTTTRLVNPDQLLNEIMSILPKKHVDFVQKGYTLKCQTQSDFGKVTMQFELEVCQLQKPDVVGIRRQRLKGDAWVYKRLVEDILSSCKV
In words: KINOMEscan at 1 μM, MELK. The note with it: 1000 nM, read-out: Percent Control. The format is binding.
Source text: as §2

A further assay has as its target T34, KIT(V559D) (Homo sapiens, UniProt P10721, V559D).
T34 construct: purchased Eurofins DiscoverX KINOMEscan
In words: KINOMEscan at 1 μM, KIT(V559D). The format is binding. The conditions noted are these: 1000 nM, read-out: Percent Control.
Source text: as §2

T31 sequence (Q00536 whole entry): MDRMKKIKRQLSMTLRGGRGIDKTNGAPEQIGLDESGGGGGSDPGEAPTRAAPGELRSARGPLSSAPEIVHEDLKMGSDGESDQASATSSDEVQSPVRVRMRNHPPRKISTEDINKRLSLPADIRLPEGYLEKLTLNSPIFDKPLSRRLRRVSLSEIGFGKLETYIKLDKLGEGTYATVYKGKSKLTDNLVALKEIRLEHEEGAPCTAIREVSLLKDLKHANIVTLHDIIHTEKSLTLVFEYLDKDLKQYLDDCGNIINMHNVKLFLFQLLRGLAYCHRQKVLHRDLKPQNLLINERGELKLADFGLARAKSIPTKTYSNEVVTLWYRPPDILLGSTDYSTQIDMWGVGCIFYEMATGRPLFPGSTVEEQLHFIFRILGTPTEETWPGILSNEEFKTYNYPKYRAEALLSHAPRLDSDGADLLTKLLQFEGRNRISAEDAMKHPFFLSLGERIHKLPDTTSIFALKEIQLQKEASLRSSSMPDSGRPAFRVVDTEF
T14 sequence (P22607 23-806): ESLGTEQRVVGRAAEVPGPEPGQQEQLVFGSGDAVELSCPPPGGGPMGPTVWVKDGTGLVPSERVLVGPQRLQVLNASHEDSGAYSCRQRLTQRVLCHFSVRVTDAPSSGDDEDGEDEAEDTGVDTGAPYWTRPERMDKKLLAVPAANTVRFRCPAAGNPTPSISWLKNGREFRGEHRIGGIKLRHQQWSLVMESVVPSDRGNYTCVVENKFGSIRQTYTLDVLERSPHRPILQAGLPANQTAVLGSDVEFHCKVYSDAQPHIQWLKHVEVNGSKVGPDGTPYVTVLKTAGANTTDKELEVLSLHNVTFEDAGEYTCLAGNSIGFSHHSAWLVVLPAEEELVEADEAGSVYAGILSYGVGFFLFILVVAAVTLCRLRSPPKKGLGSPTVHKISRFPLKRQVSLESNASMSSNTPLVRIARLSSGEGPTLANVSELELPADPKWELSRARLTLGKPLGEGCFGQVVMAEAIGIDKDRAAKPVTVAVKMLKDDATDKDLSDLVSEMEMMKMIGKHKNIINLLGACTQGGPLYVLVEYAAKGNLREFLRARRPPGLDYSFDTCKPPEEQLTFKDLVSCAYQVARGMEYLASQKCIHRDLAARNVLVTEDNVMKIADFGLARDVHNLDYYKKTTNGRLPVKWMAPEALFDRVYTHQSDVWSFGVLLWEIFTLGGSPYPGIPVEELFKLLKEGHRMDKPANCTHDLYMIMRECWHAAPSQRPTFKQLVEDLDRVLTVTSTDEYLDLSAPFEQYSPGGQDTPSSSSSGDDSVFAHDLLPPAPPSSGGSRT
T27 sequence (Q8IY84 whole entry): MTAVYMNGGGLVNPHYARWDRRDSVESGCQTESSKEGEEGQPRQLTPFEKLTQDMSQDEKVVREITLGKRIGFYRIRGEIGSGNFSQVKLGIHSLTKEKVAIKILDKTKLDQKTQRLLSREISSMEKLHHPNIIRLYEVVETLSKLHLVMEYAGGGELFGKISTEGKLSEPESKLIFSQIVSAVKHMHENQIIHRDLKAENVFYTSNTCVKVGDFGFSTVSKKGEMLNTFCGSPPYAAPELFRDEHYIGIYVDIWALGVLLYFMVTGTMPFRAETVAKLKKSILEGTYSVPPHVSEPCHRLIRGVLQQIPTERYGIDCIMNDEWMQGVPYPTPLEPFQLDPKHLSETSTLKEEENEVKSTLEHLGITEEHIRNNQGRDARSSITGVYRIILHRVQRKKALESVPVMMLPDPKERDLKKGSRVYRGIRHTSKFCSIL
T5 sequence (P41743 whole entry): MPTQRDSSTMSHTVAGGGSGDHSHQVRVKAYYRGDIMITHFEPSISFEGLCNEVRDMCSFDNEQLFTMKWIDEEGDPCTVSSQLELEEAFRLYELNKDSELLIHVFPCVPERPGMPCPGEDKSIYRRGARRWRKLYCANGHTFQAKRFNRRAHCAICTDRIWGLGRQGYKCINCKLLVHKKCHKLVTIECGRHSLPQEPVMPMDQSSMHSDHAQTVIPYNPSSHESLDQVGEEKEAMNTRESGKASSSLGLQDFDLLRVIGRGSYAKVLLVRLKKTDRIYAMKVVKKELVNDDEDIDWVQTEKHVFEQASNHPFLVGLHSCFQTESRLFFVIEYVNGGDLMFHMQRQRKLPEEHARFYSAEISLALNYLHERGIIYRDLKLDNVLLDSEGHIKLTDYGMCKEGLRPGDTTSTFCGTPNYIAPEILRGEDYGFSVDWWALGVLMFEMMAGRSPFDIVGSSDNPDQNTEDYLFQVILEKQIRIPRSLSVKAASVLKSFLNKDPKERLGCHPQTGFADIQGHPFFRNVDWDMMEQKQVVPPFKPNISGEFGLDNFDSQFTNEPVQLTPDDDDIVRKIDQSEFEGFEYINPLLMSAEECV

With `Cc1cccc(-c2cnc3occ(-c4ccc(C(=O)O)c(C5CCCC5)c4)c3c2)c1` [SGC-CAMKK2-1 (YL-36)], the remaining binding at 1 µM on PIK3CB, on MEK2, on BMX, at LOK, on PRKCI and at YANK3 was 100% in each case. The remaining binding at 1 µM at SRPK3 is 100%; in assay [1], 100%; on WNK2, 67%; on RIOK2 [2], 100%; on AAK1, 98%; on PAK1 it was 82%. The remaining binding at 1 µM on RIPK5 is 100%; at FGFR3 it was 95%; at SIK2, 85%; on GRK2, 100%.
Take `O=C(O)c1ccc(-c2coc3ncc(-c4ccccc4)cc23)cc1Cl` [SGC-CAMKK2-1N (UNC-YL-83)]: the remaining binding at 1 µM was 87% at BLK; 91% on PLK3; 64% on MST4; 70% on DAPK2; 100% on MLK3; 100% at MET(M1250T). Moreover, the remaining binding at 1 µM came out at 78% at TRKC; 79% at CLK1; 100% on DYRK2; 99% at CSNK1D; 81% at NIM1; 59% on TESK1. Also, the remaining binding at 1 µM on RIOK2 [3] was found to be 93%; at YSK1 it was 66%; on BIKE, 94%; at PCTK1 it was 83%; at PLK1 it was 79%; at MELK it was 88%. Besides, the remaining binding at 1 µM on KIT(V559D) was 70%.
